# Experimental data published in ChEMBL document CHEMBL1201862, “PubChem BioAssay data set” (2004).
#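 Values below derive from 48-hour exposures of cells grown in 96-well plates, with endpoints linearly interpolated between the two concentrations bracketing the appropriate inhibition level. At the GI50, growth is halved.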 Calls of active or inactive are those of the source. No stated cut-off is given here; in the data, active = GI50 up to about 1.1 µM and inactive = higher.
# Experiments:
# Test in all cases: NCI anticancer screen, dose series, 48 h
# [1] = tested on: SNB-19
# [2] = tested on: SNB-75
# [3] = tested on: OVCAR-8
# [4] = tested on: HCT-15
# [5] = tested on: EKVX
# [6] = tested on: OVCAR-5
# [7] = tested on: Malme-3M
# [8] = tested on: NCI-H460
# [9] = tested on: NCI-H23
# [10] = tested on: 786-0
# [11] = tested on: OVCAR-3
# [12] = tested on: HCC 2998
# [13] = tested on: K562
# [14] = tested on: KM-20L2
# [15] = tested on: M14
# [16] = tested on: UO-31
# [17] = tested on: HT-29
# [18] = tested on: SR
# [19] = tested on: OVCAR-4
# [20] = tested on: HOP-62
# [21] = tested on: SNB-78
# [22] = tested on: SF-295
# [23] = tested on: NCI-H226
# [24] = tested on: NCI-H522
# [25] = tested on: A549
# [26] = tested on: SW-620
# [27] = tested on: HCT-116
# [28] = tested on: A498
# [29] = tested on: SF-268
# [30] = tested on: DLD-1
# [31] = tested on: RXF 631
# [32] = tested on: M19-MEL
# [33] = tested on: SK-MEL-5
# [34] = tested on: LOX IMVI
# [35] = tested on: RPMI-8226
# [36] = tested on: HOP-92
# [37] = tested on: CAKI-1
# [38] = tested on: LXFL 529
# [39] = tested on: SK-OV-3
# [40] = tested on: HOP-18
# [41] = tested on: U-251
# [42] = tested on: KM12
# [43] = tested on: SK-MEL-28
# [44] = tested on: HL-60
# [45] = tested on: TK-10
# [46] = tested on: UACC-62
# [47] = tested on: COLO 205
# [48] = tested on: UACC-257
# [49] = tested on: DMS-114
# [50] = tested on: MOLT-4
# [51] = tested on: RXF 393
# [52] = tested on: ACHN
# [53] = tested on: CCRF-CEM
# [54] = tested on: IGROV-1
# [55] = tested on: SN12C
# [56] = tested on: SF-539
# [57] = tested on: SK-MEL-2
smiles,measurement,setting,value
CC(=O)C1Cn2c(nc3ccccc32)C[Se]1 (stereo not drawn),GI50,[1],5 µM (inactive)
same,GI50,[2],2.55 µM (inactive)
same,GI50,[3],4.09 µM (inactive)
same,GI50,[4],4.56 µM
same,GI50,[5],15 µM (inactive)
same,GI50,[6],3.05 µM (inactive)
same,GI50,[7],2.47 µM (inactive)
same,GI50,[8],4.15 µM (inactive)
same,GI50,[9],2.75 µM (inactive)
same,GI50,[10],3.32 µM (inactive)
same,GI50,[11],2.22 µM (inactive)
same,GI50,[12],10.3 µM (inactive)
same,GI50,[13],4.23 µM (inactive)
same,GI50,[14],12.9 µM (inactive)
same,GI50,[15],2.3 µM (inactive)
same,GI50,[16],3.1 µM (inactive)
same,GI50,[17],7.48 µM (inactive)
same,GI50,[18],3.1 µM (inactive)
same,GI50,[19],3.44 µM (inactive)
same,GI50,[20],2.37 µM (inactive)
same,GI50,[21],4.47 µM (inactive)
same,GI50,[22],3.26 µM (inactive)
same,GI50,[23],3.72 µM (inactive)
same,GI50,[24],3.28 µM (inactive)
same,GI50,[25],19.8 µM (inactive)
same,GI50,[26],5.28 µM (inactive)
same,GI50,[27],2.2 µM (inactive)
same,GI50,[28],17.7 µM (inactive)
same,GI50,[29],3.85 µM (inactive)
same,GI50,[30],3.63 µM (inactive)
same,GI50,[31],2.14 µM (inactive)
same,GI50,[32],1.99 µM (inactive)
same,GI50,[33],2 µM (inactive)
same,GI50,[34],4.29 µM (inactive)
same,GI50,[35],25.3 µM (inactive)
same,GI50,[36],2.09 µM (inactive)
same,GI50,[37],2.19 µM (inactive)
same,GI50,[38],3.2 µM (inactive)
same,GI50,[39],19.5 µM (inactive)
same,GI50,[40],2.61 µM (inactive)
same,GI50,[41],2 µM (inactive)
same,GI50,[42],3.4 µM (inactive)
same,GI50,[43],2.98 µM (inactive)
same,GI50,[44],2.47 µM (inactive)
same,GI50,[45],4.41 µM (inactive)
same,GI50,[46],1.97 µM (inactive)
same,GI50,[47],16.5 µM (inactive)
same,GI50,[48],2.48 µM (inactive)
same,GI50,[49],2.12 µM (inactive)
same,GI50,[50],2.29 µM (inactive)
same,GI50,[51],2.34 µM (inactive)
same,GI50,[52],3.39 µM (inactive)
same,GI50,[53],3.49 µM (inactive)
same,GI50,[54],2.22 µM (inactive)
same,GI50,[55],4.43 µM (inactive)
same,GI50,[56],2.29 µM (inactive)
CC(C)(C)c1cc(CCC(=O)Nc2ccc(Cl)cc2Cl)nc(N)n1,GI50,[1],> 100 µM (inactive)
same,GI50,[3],> 100 µM (inactive)
same,GI50,[4],> 100 µM
same,GI50,[5],> 100 µM (inactive)
same,GI50,[6],> 100 µM (inactive)
same,GI50,[7],> 100 µM (inactive)
same,GI50,[8],> 100 µM (inactive)
same,GI50,[9],> 100 µM (inactive)
same,GI50,[10],> 100 µM (inactive)
same,GI50,[11],> 100 µM (inactive)
same,GI50,[12],> 100 µM (inactive)
same,GI50,[13],> 100 µM (inactive)
same,GI50,[14],> 100 µM (inactive)
same,GI50,[15],> 100 µM (inactive)
same,GI50,[16],> 100 µM (inactive)
same,GI50,[17],> 100 µM (inactive)
same,GI50,[18],> 100 µM (inactive)
same,GI50,[19],> 100 µM (inactive)
same,GI50,[20],> 100 µM (inactive)
same,GI50,[21],> 100 µM (inactive)
same,GI50,[22],> 100 µM (inactive)
same,GI50,[23],> 100 µM (inactive)
same,GI50,[25],> 100 µM (inactive)
same,GI50,[26],> 100 µM (inactive)
same,GI50,[27],> 100 µM (inactive)
same,GI50,[29],> 100 µM (inactive)
same,GI50,[30],> 100 µM (inactive)
same,GI50,[31],> 100 µM (inactive)
same,GI50,[32],> 100 µM (inactive)
same,GI50,[33],> 100 µM (inactive)
same,GI50,[34],> 100 µM (inactive)
same,GI50,[36],91.6 µM (inactive)
same,GI50,[37],> 100 µM (inactive)
same,GI50,[38],> 100 µM (inactive)
same,GI50,[39],> 100 µM (inactive)
same,GI50,[40],> 100 µM (inactive)
same,GI50,[41],> 100 µM (inactive)
same,GI50,[42],> 100 µM (inactive)
same,GI50,[43],> 100 µM (inactive)
same,GI50,[44],> 100 µM (inactive)
same,GI50,[46],> 100 µM (inactive)
same,GI50,[47],> 100 µM (inactive)
same,GI50,[57],> 100 µM (inactive)
same,GI50,[48],> 100 µM (inactive)
same,GI50,[49],> 100 µM (inactive)
same,GI50,[50],> 100 µM (inactive)
same,GI50,[51],> 100 µM (inactive)
same,GI50,[52],> 100 µM (inactive)
same,GI50,[53],> 100 µM (inactive)
same,GI50,[54],> 100 µM (inactive)
same,GI50,[55],> 100 µM (inactive)
same,GI50,[56],> 100 µM (inactive)
